Experimental data taken from ChEMBL document CHEMBL4627261, “A panoramic review of IL-6: Structure, pathophysiological roles and inhibitors” (Bioorg Med Chem, 2020).

Assays:
[1] = biological target: RAC-alpha serine/threonine-protein kinase (Homo sapiens) (UniProt P31749); experiment: Inhibition of AKT (unknown origin) assessed as reduction in […] phosphorylation at 10 ug/ml by cell based assay relative to control
Homo sapiens [2] = organism: Homo sapiens; experiment: Inhibition of PI3K (unknown origin) assessed as reduction in PI3K phosphorylation by cell based assay at 10 ug/ml relative to control
Homo sapiens [3] = organism: Homo sapiens; experiment: Inhibition of MAPK (unknown origin) assessed as reduction in […] phosphorylation by cell based assay at 10 ug/ml relative to control
RAW264.7 = experiment: Effect on IL-6 mRNA expression in mouse RAW264.7 cells at 10 ug/ml relative to control; assay type: functional
WEHI265.1 [4] = experiment: Antiinflammatory activity in LPS-induced mouse WEHI265.1 cells assessed as reduction in IL-6 level at 10 uM by ELISA relative to control; assay type: functional
WEHI265.1 [5] = experiment: Antiinflammatory activity in LPS-induced mouse WEHI265.1 cells assessed as reduction in IL-6 level by ELISA; assay type: functional, cell-based
Mus musculus = experiment: Antiinflammatory activity in LPS-induced mouse model assessed as reduction in IL-6 level in serum at 25 mg/kg, po relative to control; assay type: functional

Sequence of RAC-alpha serine/threonine-protein kinase (Homo sapiens) (P31749 whole entry): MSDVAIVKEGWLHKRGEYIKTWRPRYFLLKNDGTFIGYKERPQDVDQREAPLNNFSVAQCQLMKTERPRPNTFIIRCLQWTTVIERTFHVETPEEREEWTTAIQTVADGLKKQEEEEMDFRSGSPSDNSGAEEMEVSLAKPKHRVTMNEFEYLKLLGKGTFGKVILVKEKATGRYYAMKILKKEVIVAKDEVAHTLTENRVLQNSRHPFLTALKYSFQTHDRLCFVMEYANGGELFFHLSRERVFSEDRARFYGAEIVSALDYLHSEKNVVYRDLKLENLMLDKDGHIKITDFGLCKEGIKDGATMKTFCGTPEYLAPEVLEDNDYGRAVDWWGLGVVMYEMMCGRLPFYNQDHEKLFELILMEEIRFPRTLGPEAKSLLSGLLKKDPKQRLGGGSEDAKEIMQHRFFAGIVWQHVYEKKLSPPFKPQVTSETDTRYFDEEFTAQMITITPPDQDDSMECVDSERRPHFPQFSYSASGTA

SMILES	IC50 (WEHI265.1 [5])	inhibition at 10 µM (WEHI265.1 [4])	further results
COC(=O)CCC(=O)Nc1ccccc1C(=O)OC			inhibition [1]: 70%; inhibition (Homo sapiens [2]): 51%; inhibition (Homo sapiens [3]): 54%; Activity (RAW264.7): 33%
Oc1ccc(-c2cccc(-c3ccc(O)cc3)c2)cc1		85%	inhibition in vivo at 25 mg/kg (Mus musculus): 88%
Oc1ccc(-c2cncc(-c3ccc(O)cc3)n2)cc1		55%	
O=c1c2c(n3c(c1-c1ccccc1)SCC3)CCC2	0.2 µM	52%	
O=c1c2c(n3c(c1-c1ccccc1)OCC3)CCC2	0.2 µM	20%	
O=c1c2c(n3c(c1-c1ccccc1[N+](=O)[O-])NCC3)CCC2	0.2 µM	73%	
CN1CCn2c3c(c(=O)c(-c4ccccc4)c21)CCC3	0.2 µM	43%	
Oc1ccc(-c2cncc(-c3ccc(O)cc3)c2)cc1		73%	inhibition in vivo at 25 mg/kg (Mus musculus): 71%

The next lines start with results.

IC50 (WEHI265.1 [5])	SMILES	inhibition at 10 µM (WEHI265.1 [4])	further results
0.2 µM	COc1ccccc1-c1c2n(c3c(c1=O)CCC3)CCN2	82%	
0.2 µM	CC(=O)Nc1ccccc1-c1c2n(c3c(c1=O)CCC3)CCN2	74%	
0.2 µM	O=c1c2c(n3c(c1-c1ccccc1Cl)NCC3)CCC2	90%	
0.2 µM	Nc1ccccc1-c1c2n(c3c(c1=O)CCC3)CCN2	82%	
0.2 µM	O=c1c2c(n3c(c1-c1ccccc1)NCC3)CCC2	74%	
